Experimental data reported in article PMC7337064, “Parsing the functional specificity of Siderocalin/Lipocalin 2/NGAL for siderophores and related small-molecule ligands” (Journal of Structural Biology: X, 2019).

Key:
Scn [1] = target: Scn; parameters: method as in Li et al., 2015; settings: ref Li et al., 2015; cited from earlier work
Scn [2] = target: T1, Scn (Homo sapiens, UniProt P80188); assay: Fe-ENT/c-di-GMP competition mixing experiment (ultrafilter retentates); format: binding; settings: Scn premixed with 25-fold molar excess c-di-GMP, then equimolar Fe-ENT, washed in ultrafilter
T1 construct: made in house
Source text: Li and coworkers reported that c-di-GMP could compete with bacterial ferric siderophores for Scn binding, alleviating Scn blockade of bacterial iron acquisition during infection ([Li et al., 2015]). This conclusion was based on a computational inverse docking screen, isothermal titration calorimetry (ITC) binding assays, and bacterial growth assays. However, c-di-GMP is not particularly complementary in shape to the Scn calyx, and lacks elements crucial for calyx binding, though its net negative charge does complement the overall positive charge of the calyx. Also, the reported micromolar KD by ITC for the Scn/c-di-GMP interaction was orders-of-magnitude weaker than the sub-nanomolar KDs of Scn for ferric complexes of bacterial CAM-type siderophores previously determined by FQ ([Abergel et al., 2006a], [Abergel et al., 2006b], [Goetz et al., 2002], [Hoette et al., 2008], [Miethke and Skerra, 2010]). [We noted that Li and coworkers also reported a discrepant micromolar KD for the Scn/Fe-ENT interaction by ITC.] However, this conundrum was easily resolved by a simple mixing experiment not previously performed (Fig. 7C). Colorless apo-Scn protein was premixed with a 25-fold molar excess of colorless c-di-GMP, at a concentration well above the reported micromolar KD, and allowed to equilibrate. Fe-ENT, which is colored a deep red, was then added at an equimolar ratio to Scn. […]

T1 sequence (P80188 21-198): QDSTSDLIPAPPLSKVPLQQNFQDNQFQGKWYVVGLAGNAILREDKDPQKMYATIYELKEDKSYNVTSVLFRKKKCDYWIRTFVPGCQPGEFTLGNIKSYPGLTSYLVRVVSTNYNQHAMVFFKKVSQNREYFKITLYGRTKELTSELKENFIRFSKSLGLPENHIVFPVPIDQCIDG

Nc1nc2c(ncn2[C@@H]2O[C@@H]3COP(=O)(O)O[C@H]4[C@@H](O)[C@H](n5cnc6c(=O)[nH]c(N)nc65)O[C@@H]4COP(=O)(O)O[C@H]3[C@H]2O)c(=O)[nH]1 [c-di-GMP, cyclic diguanylate monophosphate]
KD by ITC (Scn [1]): micromolar
competition with Fe-ENT for Scn binding (Scn [2]): too weak to impede binding of ferric siderophores
